Source: patent publication US10034862B2, “Solid pharmaceutical composition comprising amlodipine and losartan” (HANMI PHARM. CO., LTD., priority 2014, dated 2018)

Assays:
[1] = cited from earlier work
[2] = Dissolution of losartan at different pH (gelation); type: physicochemical
Procedure: However, when the combined formulation of amlodipine and losartan was prepared, undesirable gelation of losartan was observed. […] As such, in the combined formulation of amlodipine and losartan, amlodipine may also be trapped in the losartan gel due to the gelation of losartan, resulting in a decrease in dissolution rate.

For CCCCc1nc(Cl)c(CO)n1Cc1ccc(-c2ccccc2-c2nnn[nH]2)cc1 [losartan, 2-butyl-4-chloro-1-[[2′-(1H-tetrazol-5-yl)[1,1′-biphenyl]-4-yl]methyl]-1H-imidazol-5-methanol], the “reduction of Cmax of losartan after food ingestion” value [1] is listed as “about 10%”, the “dissolution of losartan (in words)” value ([2]; low pH (e.g., pH 1.2 or 2.0), gelation) is listed as “very slowly dissolved” and the “dissolution of losartan (in words)” value ([2]; purified water or relatively high pH (e.g., pH 6.8)) is listed as “easily dissolved”.
